According to paper PMC9562188, “Characterization of the Aquaporin-9 Inhibitor RG100204 In Vitro and in db/db Mice” (Cells, 2022):

Target: T1, Aquaporin-9 (AQP9) (Homo sapiens, UniProt O43315)
T1 construct: 10×His-hAQP9 (N-terminal 10-histidine tag), purified from P. pastoris, reconstituted in proteoliposomes
T1 sequence (O43315 1-295): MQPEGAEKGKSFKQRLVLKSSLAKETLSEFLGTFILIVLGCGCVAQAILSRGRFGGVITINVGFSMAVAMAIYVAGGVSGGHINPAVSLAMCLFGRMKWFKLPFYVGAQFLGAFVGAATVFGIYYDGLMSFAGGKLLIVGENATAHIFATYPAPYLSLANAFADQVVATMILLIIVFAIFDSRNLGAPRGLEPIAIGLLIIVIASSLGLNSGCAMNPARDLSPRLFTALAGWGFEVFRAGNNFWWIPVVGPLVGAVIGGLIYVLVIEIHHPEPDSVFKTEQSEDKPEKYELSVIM
Assay: stopped-flow light scattering of purified AQP9 proteoliposomes ([…], −[…] Pgly); IC50 (water permeability; glycerol […]) from calcein quenching in human AQP9-expressing CHO cells
Assay type: cell-based

IC50: ~200 nM
SMILES: O=C(CCc1ccc(O)cc1)c1c(O)cc(O)cc1O [phlor, phloretin]
